{
  "source": "paper PMC12578881",
  "about": "“Pan-cancer Myc modulator that targets Myc-α-tubulin interaction to drive selective mitotic catastrophe” (Scientific Reports, 2025)",
  "key": {"[1]": {"target": "T1, c-Myc Micro-Tag (Myc-MicroTag) (Homo sapiens, UniProt P01106)", "T1 construct": "15-residue Micro-Tag at C-terminus; transiently expressed in HEK293; Triton X-100 lysate", "T1 sequence (P01106 whole entry)": "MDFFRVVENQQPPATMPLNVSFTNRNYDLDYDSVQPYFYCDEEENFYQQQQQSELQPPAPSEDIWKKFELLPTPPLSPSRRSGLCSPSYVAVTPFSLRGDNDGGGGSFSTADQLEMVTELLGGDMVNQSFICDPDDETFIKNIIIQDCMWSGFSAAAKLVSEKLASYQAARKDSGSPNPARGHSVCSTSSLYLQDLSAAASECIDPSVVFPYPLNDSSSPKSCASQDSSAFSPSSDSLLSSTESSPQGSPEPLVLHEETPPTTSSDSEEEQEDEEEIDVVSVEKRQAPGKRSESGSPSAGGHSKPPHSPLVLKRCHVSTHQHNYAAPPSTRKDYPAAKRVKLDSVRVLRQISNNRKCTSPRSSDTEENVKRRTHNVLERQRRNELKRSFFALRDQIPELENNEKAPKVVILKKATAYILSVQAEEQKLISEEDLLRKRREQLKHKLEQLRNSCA", "test": "Micro-Tag thermal-shift target engagement (enzyme complementation)", "assay_type": "biochemical"}, "[2]": {"target": "T2, recombinant Myc protein (full length c-Myc) (Homo sapiens, UniProt P01106)", "T2 construct": "full length recombinant protein, gift of A. Chinnaiyan", "T2 sequence (P01106 whole entry)": "as above", "test": "competitive fluorescence polarization against 10074-G5", "assay_type": "binding", "conditions": "10 µM Myc, 10 µM 10074-G5, DL78 20-60 µM, 30 min room temperature; site unproven, competitive or allosteric"}},
  "note": "pEC50: −log10 of the molar value.",
  "data": [
    {"compound": "COc1ccc2oc(C(=O)c3c(C)oc4ccc(OC)cc34)cc2c1", "note": "[DL78, (5-methoxy-2-methylbenzofuran-3-yl)(5-methoxybenzofuran-2-yl)methanone]", "values": [
      {"measurement": "pEC50", "setting": "[1]", "result": 5.74},
      {"measurement": "competitive fluorescence polarization against 10074-G5", "setting": "[2]", "result": "DL78 competed with 10074-G5 in a dose dependent manner"}
    ]}
  ]
}
